Measured values reported in ChEMBL document CHEMBL3997764 (Medchemcomm, 2016).
≈ marks a conversion by molar mass, not a printed value.

Legend:
[1] = target: T1, Nuclear receptor subfamily 1 group I member 2 (Homo sapiens, UniProt O75469); assay: Activation of PXR in human LS180 cells assessed as P-gp induction by measuring intracellular accumulation of rhodamine 123 per ug of total protein at 5 uM preincubated for 48 hrs followed by rhodamine 123 addition after 40 mins and measured after 90 mins by fluorescence assay relative to control; format: cell-based; settings: 1.5 h
T1 sequence (O75469 whole entry): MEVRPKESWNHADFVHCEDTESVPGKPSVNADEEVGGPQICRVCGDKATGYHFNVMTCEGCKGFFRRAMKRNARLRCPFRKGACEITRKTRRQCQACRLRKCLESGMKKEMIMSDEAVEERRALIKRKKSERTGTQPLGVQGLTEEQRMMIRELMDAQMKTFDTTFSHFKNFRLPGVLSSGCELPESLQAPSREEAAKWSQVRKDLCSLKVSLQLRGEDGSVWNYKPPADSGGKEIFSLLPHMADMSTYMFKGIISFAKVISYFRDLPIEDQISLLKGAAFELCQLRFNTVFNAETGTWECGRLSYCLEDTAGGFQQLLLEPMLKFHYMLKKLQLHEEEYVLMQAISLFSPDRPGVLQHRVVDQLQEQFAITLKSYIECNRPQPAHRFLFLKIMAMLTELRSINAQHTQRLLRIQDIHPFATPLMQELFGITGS

[2] = Cytotoxicity against human LS180 cells assessed as cell viability at 30 uM after 24 hrs by MTT assay relative to control; format: cell-based; settings: read-out: Activity
[3] = target: T2, P-gp (expression induced through PXR) (Homo sapiens, UniProt O75469); assay: Activation of PXR in human LS180 cells assessed as induction of P-gp expression at 5 uM by Western blot method relative to control; format: cell-based; settings: read-out: FC
T2 sequence (O75469 whole entry): T1 sequence (O75469 whole entry)

[4] = target: T1, Nuclear receptor subfamily 1 group I member 2; assay: Activation of PXR in human LS180 cells assessed as P-gp induction by measuring intracellular accumulation of rhodamine 123 preincubated for 48 hrs followed by rhodamine 123 addition after 40 mins and measured after 90 mins by fluorescence assay; format: cell-based
[5] = Thermodynamic aqueous solubility of the compound in water after overnight incubation; format: physicochemical; settings: read-out: Therm_solubility
[6] = Thermodynamic aqueous solubility of the compound in phosphate buffered saline at pH 7.4 after overnight incubation; format: physicochemical; settings: read-out: Therm_solubility
[7] = Thermodynamic aqueous solubility of the compound in simulated gastric fluid at pH 1.2 after overnight incubation; format: physicochemical; settings: read-out: Therm_solubility
[8] = Thermodynamic aqueous solubility of the compound in simulated intestinal fluid at pH 6.8 after overnight incubation; format: physicochemical; settings: read-out: Therm_solubility
[9] = target: CYP3A4 (Homo sapiens, UniProt P08684); assay: Inhibition of human recombinant CYP3A4 at 10 uM by fluorescence analysis relative to control; format: ADME
Chain of CYP3A4 (P08684 whole entry): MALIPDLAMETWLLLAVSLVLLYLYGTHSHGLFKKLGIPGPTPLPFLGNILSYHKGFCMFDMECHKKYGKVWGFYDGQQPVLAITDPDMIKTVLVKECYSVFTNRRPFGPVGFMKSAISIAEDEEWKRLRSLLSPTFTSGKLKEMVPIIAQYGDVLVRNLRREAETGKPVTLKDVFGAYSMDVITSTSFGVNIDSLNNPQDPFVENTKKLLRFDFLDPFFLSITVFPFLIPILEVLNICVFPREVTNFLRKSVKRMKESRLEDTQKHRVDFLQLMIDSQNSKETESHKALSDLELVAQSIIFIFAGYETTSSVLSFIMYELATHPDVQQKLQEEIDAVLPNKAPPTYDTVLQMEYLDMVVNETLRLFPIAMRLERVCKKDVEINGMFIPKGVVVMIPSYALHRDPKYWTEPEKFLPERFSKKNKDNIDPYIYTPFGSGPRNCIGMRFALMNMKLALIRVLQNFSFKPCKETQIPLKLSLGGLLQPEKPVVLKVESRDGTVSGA

[10] = target: CYP2D6 (Homo sapiens, UniProt P10635); assay: Inhibition of human recombinant CYP2D6 at 10 uM by fluorescence analysis relative to control; format: ADME
Chain of CYP2D6 (P10635 whole entry): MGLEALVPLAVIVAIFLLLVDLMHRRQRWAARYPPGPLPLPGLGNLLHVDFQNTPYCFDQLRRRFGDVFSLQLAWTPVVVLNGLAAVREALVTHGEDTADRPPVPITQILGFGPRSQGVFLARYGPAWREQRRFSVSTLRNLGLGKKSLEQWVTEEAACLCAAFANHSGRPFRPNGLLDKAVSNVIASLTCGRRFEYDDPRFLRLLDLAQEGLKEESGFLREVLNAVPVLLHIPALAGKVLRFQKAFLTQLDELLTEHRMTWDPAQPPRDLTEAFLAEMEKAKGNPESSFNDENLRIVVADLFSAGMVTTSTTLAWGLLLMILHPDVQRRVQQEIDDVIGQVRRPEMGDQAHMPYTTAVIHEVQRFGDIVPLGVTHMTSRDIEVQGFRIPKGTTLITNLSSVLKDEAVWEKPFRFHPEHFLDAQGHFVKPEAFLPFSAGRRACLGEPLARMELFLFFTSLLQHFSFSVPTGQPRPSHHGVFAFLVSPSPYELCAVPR

[11] = target: CYP2C9 (Homo sapiens, UniProt P11712); assay: Inhibition of human recombinant CYP2C9 at 10 uM by fluorescence analysis relative to control; format: ADME
Chain of CYP2C9 (P11712 whole entry): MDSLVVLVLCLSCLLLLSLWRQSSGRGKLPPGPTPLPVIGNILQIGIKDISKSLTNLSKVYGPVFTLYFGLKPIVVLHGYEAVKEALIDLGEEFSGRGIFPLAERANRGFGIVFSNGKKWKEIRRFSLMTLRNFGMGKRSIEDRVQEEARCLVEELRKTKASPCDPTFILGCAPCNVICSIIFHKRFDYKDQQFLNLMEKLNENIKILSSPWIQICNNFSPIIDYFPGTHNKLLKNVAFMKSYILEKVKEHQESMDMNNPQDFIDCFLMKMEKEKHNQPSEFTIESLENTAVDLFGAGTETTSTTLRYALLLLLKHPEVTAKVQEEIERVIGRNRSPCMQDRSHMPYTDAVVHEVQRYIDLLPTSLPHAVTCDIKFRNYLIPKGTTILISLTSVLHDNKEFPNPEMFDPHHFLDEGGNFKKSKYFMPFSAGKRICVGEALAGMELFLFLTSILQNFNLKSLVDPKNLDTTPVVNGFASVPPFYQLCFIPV

[12] = target: CYP2C19 (Homo sapiens, UniProt P33261); assay: Inhibition of human recombinant CYP2C19 at 10 uM by fluorescence analysis relative to control; format: ADME
Chain of CYP2C19 (P33261 whole entry): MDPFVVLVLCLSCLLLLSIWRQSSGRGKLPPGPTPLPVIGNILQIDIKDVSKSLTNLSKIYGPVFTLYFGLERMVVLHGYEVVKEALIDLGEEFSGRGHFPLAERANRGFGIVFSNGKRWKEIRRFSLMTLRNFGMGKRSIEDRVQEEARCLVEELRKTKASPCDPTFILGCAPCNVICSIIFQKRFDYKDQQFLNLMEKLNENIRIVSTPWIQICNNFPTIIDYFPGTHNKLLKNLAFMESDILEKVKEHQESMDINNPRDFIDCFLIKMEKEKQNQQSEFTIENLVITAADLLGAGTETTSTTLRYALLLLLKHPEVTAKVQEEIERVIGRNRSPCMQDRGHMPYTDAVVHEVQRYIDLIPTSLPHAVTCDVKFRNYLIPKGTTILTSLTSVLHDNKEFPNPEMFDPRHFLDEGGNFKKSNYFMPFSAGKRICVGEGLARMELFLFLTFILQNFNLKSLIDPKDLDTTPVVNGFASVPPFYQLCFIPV

[13] = Efflux ratio of permeability in human Caco2 cells after 90 mins by LC-MS/MS analysis; format: ADME, cell-based; settings: Caco-2
[14] = Terminal half life in BALB/c mouse plasma at 1 mg/kg, iv by LC-MS/MS analysis; format: ADME, organism-based; settings: read-out: beta t1/2 (converted)
[15] = AUC (0 to t) in BALB/c mouse plasma at 1 mg/kg, iv up to 24 hrs by LC-MS/MS analysis; format: ADME, organism-based; parameters: dose 1 mg/kg, time < 24 hr, route intravenous
[16] = AUC (0 to infinity) in BALB/c mouse plasma at 1 mg/kg, iv up to 24 hrs by LC-MS/MS analysis; format: ADME, organism-based; parameters: dose 1 mg/kg, route intravenous, time infinity
[17] = Cmax in BALB/c mouse plasma at 1 mg/kg, iv up to 24 hrs by LC-MS/MS analysis; format: ADME, organism-based; parameters: dose 1 mg/kg, route intravenous
[18] = Clearance in BALB/c mouse plasma at 1 mg/kg, iv up to 24 hrs by LC-MS/MS analysis; format: ADME, organism-based
[19] = Initial plasma concentration in BALB/c mouse at 1 mg/kg, iv up to 24 hrs by LC-MS/MS analysis; format: ADME, organism-based
[20] = Volume of distribution in BALB/c mouse at 1 mg/kg, iv up to 24 hrs by LC-MS/MS analysis; format: ADME, organism-based; settings: in vivo
[21] = Volume of distribution at steady state in BALB/c mouse at 1 mg/kg, iv up to 24 hrs by LC-MS/MS analysis; format: ADME, organism-based; settings: in vivo, read-out: Vdss
[22] = test system: Mus musculus; assay: Tlast in BALB/c mouse at 1 mg/kg, iv up to 24 hrs by LC-MS/MS analysis; format: ADME, organism-based; settings: in vivo
[23] = Terminal half life in BALB/c mouse plasma at 10 mg/kg, po by LC-MS/MS analysis; format: ADME, organism-based; settings: read-out: beta t1/2 (converted)
[24] = AUC (0 to t) in BALB/c mouse plasma at 10 mg/kg, po up to 24 hrs by LC-MS/MS analysis; format: ADME, organism-based; parameters: dose 10 mg/kg, time < 24 hr, route oral
[25] = AUC (0 to infinity) in BALB/c mouse plasma at 10 mg/kg, po up to 24 hrs by LC-MS/MS analysis; format: ADME, organism-based; parameters: dose 10 mg/kg, time infinity, route oral
[26] = Cmax in BALB/c mouse plasma at 10 mg/kg, po up to 24 hrs by LC-MS/MS analysis; format: ADME, organism-based; parameters: dose 10 mg/kg, route oral
[27] = Tmax in BALB/c mouse plasma at 10 mg/kg, po up to 24 hrs by LC-MS/MS analysis; format: ADME, organism-based
[28] = Oral bioavailability in BALB/c mouse plasma at 10 mg/kg up to 24 hrs by LC-MS/MS analysis; format: ADME, organism-based
[29] = test system: LS180; assay: Cytotoxicity against human LS180 cells assessed as reduction in cell viability after 24 hrs by MTT assay; format: cell-based; settings: LS180, 24 h

Work on `CCOP(=O)(OCC)C(=Cc1ccccc1)P(=O)(OCC)OCC` yielded an Activity [1] of 58.09%, a viability at 24 h, 30 µM [2] of 100% and a fold induction at 5 µM [3] of 7.2. The EC50 [4] was 0.271 µM, the solubility thermodynamic [5] was over 1.5 mg/mL and the solubility thermodynamic [6] was over 1.5 mg/mL. For the same compound, the solubility thermodynamic [7] was over 1.5 mg/mL, the solubility thermodynamic [8] was 0.04 mg/mL (≈ 0.106 mM) and the inhibition at 10 µM [9] was 19%. For the same compound, the inhibition at 10 µM [10] was 20%, the inhibition at 10 µM [11] was 0% and the inhibition at 10 µM [12] was 0%. The efflux ratio at 1.5 h [13] was 0.9, the half-life [14] was 41.4 min and the AUC(0-t) at 24 h [15] was 0.543 µg·h/mL. It also gave an AUC(0-inf) [16] of 0.549 µg·h/mL, a Cmax [17] of 0.811 µg/mL and a clearance [18] of 1.82 L/h/kg. For the same compound, the C0 at 24 h [19] was 1.15 µg/mL, the Vd [20] was 1.81 L/kg and the Vd [21] was 1.1 L/kg. It also gave a Tlast [22] of 4 h, a half-life [23] of 209 min and an AUC(0-t) at 24 h [24] of 1.97 µg·h/mL. The AUC(0-inf) [25] was 2.07 µg·h/mL, the Cmax [26] was 0.87 µg/mL and the Tmax [27] was 30 min. It also gave a bioavailability [28] of 37.6% and an IC50 [29] of over 30 µM.
